Data taken from the NIST ThermoML archive (doi:10.1021/je200922s).

Assay: xn = mol fraction of the nth substance listed
Conditions: 101 kPa, Liquid; for viscosity: Capillary tube (Ostwald / Ubbelohde) method; for mass density: Vibrating tube method

CCn1cc[n+](C)c1.O=S(=O)([N-]S(=O)(=O)C(F)(F)F)C(F)(F)F + CCO
Conditions | mass density [kg/m3] | viscosity [mPa·s]
293.15 K, x1 = 0.1008 | 1038.4 | 1.612
293.15 K, x1 = 0.1971 | 1179.41 | 2.78
293.15 K, x1 = 0.3 | 1276.68 | 4.6
293.15 K, x1 = 0.3992 | 1341.77 | 7.429
293.15 K, x1 = 0.5014 | 1391.85 | 10.65
293.15 K, x1 = 0.5955 | 1427.56 | 13.87
293.15 K, x1 = 0.6966 | 1458.64 | 17.76
293.15 K, x1 = 0.7982 | 1484.18 | 21.8
293.15 K, x1 = 0.9041 | 1506.32 | 28.74
298.15 K, x1 = 0.1008 | 1034.14 | 1.478
298.15 K, x1 = 0.1971 | 1175.21 | 2.35
298.15 K, x1 = 0.3 | 1272.19 | 4.15
298.15 K, x1 = 0.3992 | 1337.18 | 6.479
298.15 K, x1 = 0.5014 | 1387.12 | 9.232
298.15 K, x1 = 0.5955 | 1422.72 | 12.05
298.15 K, x1 = 0.6966 | 1453.69 | 15.18
298.15 K, x1 = 0.7982 | 1479.17 | 18.7
298.15 K, x1 = 0.9041 | 1501.31 | 24.52
303.15 K, x1 = 0.1008 | 1029.79 | 1.25
303.15 K, x1 = 0.1971 | 1170.59 | 2.16
303.15 K, x1 = 0.3 | 1267.5 | 3.728
303.15 K, x1 = 0.3992 | 1332.39 | 5.697
303.15 K, x1 = 0.5014 | 1382.49 | 8.1
303.15 K, x1 = 0.5955 | 1417.99 | 10.31
303.15 K, x1 = 0.6966 | 1448.78 | 13.13
303.15 K, x1 = 0.7982 | 1474.28 | 16.12
303.15 K, x1 = 0.9041 | 1496.34 | 20.9
308.15 K, x1 = 0.1008 | 1025.12 | 1.12
308.15 K, x1 = 0.1971 | 1166.55 | 1.9
308.15 K, x1 = 0.3 | 1263.4 | 3.157
308.15 K, x1 = 0.3992 | 1327.88 | 5.055
308.15 K, x1 = 0.5014 | 1377.68 | 7.177
308.15 K, x1 = 0.5955 | 1413.41 | 9.109
308.15 K, x1 = 0.6966 | 1443.98 | 11.47
308.15 K, x1 = 0.7982 | 1469.4 | 14.04
308.15 K, x1 = 0.9041 | 1491.39 | 18.05
313.15 K, x1 = 0.1008 | 1021.47 | 1.101
313.15 K, x1 = 0.1971 | 1162.51 | 1.645
313.15 K, x1 = 0.3 | 1259.31 | 2.64
313.15 K, x1 = 0.3992 | 1323.62 | 4.404
313.15 K, x1 = 0.5014 | 1372.99 | 6.199
313.15 K, x1 = 0.5955 | 1408.57 | 7.954
313.15 K, x1 = 0.6966 | 1439.3 | 10.01
313.15 K, x1 = 0.7982 | 1464.39 | 12.34
313.15 K, x1 = 0.9041 | 1486.41 | 15.74
318.15 K, x1 = 0.1008 | 1019.1 | 1.001
318.15 K, x1 = 0.1971 | 1159.51 | 1.412
318.15 K, x1 = 0.3 | 1255.23 | 2.459
318.15 K, x1 = 0.3992 | 1319.8 | 3.945
318.15 K, x1 = 0.5014 | 1368.71 | 5.603
318.15 K, x1 = 0.5955 | 1404 | 7.141
318.15 K, x1 = 0.6966 | 1434.53 | 8.965
318.15 K, x1 = 0.7982 | 1459.6 | 10.93
318.15 K, x1 = 0.9041 | 1481.54 | 13.84
323.15 K, x1 = 0.1008 | 1015.54 | 0.987
323.15 K, x1 = 0.1971 | 1156.54 | 1.307
323.15 K, x1 = 0.3 | 1252.11 | 2.317
323.15 K, x1 = 0.3992 | 1316.24 | 3.656
323.15 K, x1 = 0.5014 | 1364.61 | 5.195
323.15 K, x1 = 0.5955 | 1399.5 | 6.5
323.15 K, x1 = 0.6966 | 1429.97 | 8.116
323.15 K, x1 = 0.7982 | 1454.97 | 9.799
323.15 K, x1 = 0.9041 | 1476.73 | 12.28

CCn1cc[n+](C)c1.O=S(=O)([N-]S(=O)(=O)C(F)(F)F)C(F)(F)F + CN1CCCC1=O
Conditions | mass density [kg/m3] | viscosity [mPa·s]
293.15 K, x1 = 0.0978 | 1144.09 | 3.344
293.15 K, x1 = 0.1979 | 1228.99 | 5.561
293.15 K, x1 = 0.2957 | 1292.83 | 8.637
293.15 K, x1 = 0.395 | 1344.49 | 12.04
293.15 K, x1 = 0.493 | 1386.31 | 15.84
293.15 K, x1 = 0.5893 | 1420.55 | 20.06
293.15 K, x1 = 0.6917 | 1451.44 | 24.72
293.15 K, x1 = 0.798 | 1478.94 | 29.72
293.15 K, x1 = 0.9002 | 1502.24 | 34.93
298.15 K, x1 = 0.0978 | 1139.45 | 3.026
298.15 K, x1 = 0.1979 | 1224.19 | 4.943
298.15 K, x1 = 0.2957 | 1287.87 | 7.604
298.15 K, x1 = 0.395 | 1339.44 | 10.45
298.15 K, x1 = 0.493 | 1381.19 | 13.6
298.15 K, x1 = 0.5893 | 1415.41 | 17.07
298.15 K, x1 = 0.6917 | 1446.29 | 20.87
298.15 K, x1 = 0.798 | 1473.78 | 24.7
298.15 K, x1 = 0.9002 | 1497.09 | 28.7
303.15 K, x1 = 0.0978 | 1134.72 | 2.754
303.15 K, x1 = 0.1979 | 1219.33 | 4.457
303.15 K, x1 = 0.2957 | 1282.91 | 6.749
303.15 K, x1 = 0.395 | 1334.42 | 9.159
303.15 K, x1 = 0.493 | 1376.09 | 11.82
303.15 K, x1 = 0.5893 | 1410.27 | 14.7
303.15 K, x1 = 0.6917 | 1441.15 | 17.85
303.15 K, x1 = 0.798 | 1468.63 | 21.05
303.15 K, x1 = 0.9002 | 1491.96 | 24.29
308.15 K, x1 = 0.0978 | 1130.03 | 2.519
308.15 K, x1 = 0.1979 | 1214.47 | 4.028
308.15 K, x1 = 0.2957 | 1277.97 | 6.033
308.15 K, x1 = 0.395 | 1329.38 | 8.092
308.15 K, x1 = 0.493 | 1371 | 10.37
308.15 K, x1 = 0.5893 | 1405.15 | 12.81
308.15 K, x1 = 0.6917 | 1436.01 | 15.44
308.15 K, x1 = 0.798 | 1463.48 | 18.24
308.15 K, x1 = 0.9002 | 1486.83 | 20.83
313.15 K, x1 = 0.0978 | 1125.31 | 2.314
313.15 K, x1 = 0.1979 | 1209.6 | 3.647
313.15 K, x1 = 0.2957 | 1272.99 | 5.43
313.15 K, x1 = 0.395 | 1324.28 | 7.19
313.15 K, x1 = 0.493 | 1365.88 | 9.174
313.15 K, x1 = 0.5893 | 1399.96 | 11.26
313.15 K, x1 = 0.6917 | 1430.83 | 13.44
313.15 K, x1 = 0.798 | 1458.28 | 15.76
313.15 K, x1 = 0.9002 | 1481.67 | 18.12
318.15 K, x1 = 0.0978 | 1120.61 | 2.13
318.15 K, x1 = 0.1979 | 1204.73 | 3.325
318.15 K, x1 = 0.2957 | 1268 | 4.916
318.15 K, x1 = 0.395 | 1319.23 | 6.44
318.15 K, x1 = 0.493 | 1360.77 | 8.18
318.15 K, x1 = 0.5893 | 1394.81 | 9.989
318.15 K, x1 = 0.6917 | 1425.65 | 11.83
318.15 K, x1 = 0.798 | 1453.09 | 13.78
318.15 K, x1 = 0.9002 | 1476.54 | 15.79
323.15 K, x1 = 0.0978 | 1115.91 | 1.98
323.15 K, x1 = 0.1979 | 1199.83 | 3.079
323.15 K, x1 = 0.2957 | 1262.96 | 4.481
323.15 K, x1 = 0.395 | 1314.12 | 5.816
323.15 K, x1 = 0.493 | 1355.62 | 7.344
323.15 K, x1 = 0.5893 | 1389.73 | 8.911
323.15 K, x1 = 0.6917 | 1420.58 | 10.51
323.15 K, x1 = 0.798 | 1448.03 | 12.31
323.15 K, x1 = 0.9002 | 1471.41 | 13.95
